According to patent US10392354B2, “Highly selective anti-cancer agents targeting non-small cell lung cancer and other forms of cancer” (The University of Toledo, priority 2013, dated 2019):

Legend:
Type in all cases: cell-based
NCI-H522 cells = experiment: lethality / cell viability of NCI-H522 cells; settings: for lethality / activity on NCI-H522 cell line: concentration not given
Description: FIGS. 5A-5C: The effect of compound 1f on NCI-H522 cells at 10 μM. […] Interval between images shown is 1 hour.
FIGS. 5A-5C show the effects of 1f on NCI-H522 cells at 10 μM.
The effects of compound 2 on NCI-H522 cells, other cancer cells, and normal cell lines were evaluated. […] FIGS. 3A-3C show the effects of compound 2 on tubulin and mitochondrial function.

tubulin = experiment: cell staining with antibodies to tubulin in NCI-H522 cells; settings: in interphase or mitosis
Description: (§1) FIGS. 3A-3C: The effect of compound 2 (10 μM) on tubulin and mitochondrial function. […] Arrowheads: two cells that have lost mitochondrial membrane potential; phase contrast indicates these are dead cells.
(§2) The effects of compound 2 on NCI-H522 cells, other cancer cells, and normal cell lines were evaluated. Compound 2 killed NCI-H522 cells at 10 μM. […] FIGS. 3A-3C show the effects of compound 2 on tubulin and mitochondrial function.

mitochondrial potential = experiment: TMRE staining of mitochondrial membrane potential in NCI-H522 cells; settings: during the death process
Description: as §1, §2

Row | SMILES | cell killing of NCI-H522 cells (NCI-H522 cells; 10 μM) | effects on tubulin (tubulin) | mitochondrial membrane potentials (mitochondrial potential) | lethality / activity on NCI-H522 cell line (NCI-H522 cells)
1 | C#Cc1nc(C2=C(C)[C@@H](O)CC2)cs1 [Compound 2] | killed | no overt effects | intact until late in the death process | 
2 | C#Cc1nc(C2=C(C)C(=O)CC2)cs1 [Compound 3, 3-(2-ethynylthiazol-4-yl)-2-methylcyclopent-2-enone] |  |  |  | lethal
3 | C#Cc1nc(C2=C(C)C(=O)C(Cc3ccccc3)C2)cs1 (centres unmarked) [Compound 4, 5-benzyl-3-(2-ethynylthiazol-4-yl)-2-methylcyclopent-2-enone] |  |  |  | did not compromise
